{
  "source": "ChEMBL document CHEMBL5500373",
  "about": "“Lead optimization based design, synthesis, and pharmacological evaluation of quinazoline derivatives as multi-targeting agents for Alzheimer's disease treatment” (Eur J Med Chem, 2024)",
  "key": {"[1]": {"experiment": "Elimination half life in male Wistar rat at 20 mg/kg, po measured upto 32 hrs by high-performance liquid chromatography", "format": "ADME, organism-based", "details": "in vivo, read-out: beta t1/2 (converted)"}, "[2]": {"molecular_target": "Amyloid-beta precursor protein (Homo sapiens) (UniProt P05067)", "sequence (P05067 whole entry, the tested form may be a part)": "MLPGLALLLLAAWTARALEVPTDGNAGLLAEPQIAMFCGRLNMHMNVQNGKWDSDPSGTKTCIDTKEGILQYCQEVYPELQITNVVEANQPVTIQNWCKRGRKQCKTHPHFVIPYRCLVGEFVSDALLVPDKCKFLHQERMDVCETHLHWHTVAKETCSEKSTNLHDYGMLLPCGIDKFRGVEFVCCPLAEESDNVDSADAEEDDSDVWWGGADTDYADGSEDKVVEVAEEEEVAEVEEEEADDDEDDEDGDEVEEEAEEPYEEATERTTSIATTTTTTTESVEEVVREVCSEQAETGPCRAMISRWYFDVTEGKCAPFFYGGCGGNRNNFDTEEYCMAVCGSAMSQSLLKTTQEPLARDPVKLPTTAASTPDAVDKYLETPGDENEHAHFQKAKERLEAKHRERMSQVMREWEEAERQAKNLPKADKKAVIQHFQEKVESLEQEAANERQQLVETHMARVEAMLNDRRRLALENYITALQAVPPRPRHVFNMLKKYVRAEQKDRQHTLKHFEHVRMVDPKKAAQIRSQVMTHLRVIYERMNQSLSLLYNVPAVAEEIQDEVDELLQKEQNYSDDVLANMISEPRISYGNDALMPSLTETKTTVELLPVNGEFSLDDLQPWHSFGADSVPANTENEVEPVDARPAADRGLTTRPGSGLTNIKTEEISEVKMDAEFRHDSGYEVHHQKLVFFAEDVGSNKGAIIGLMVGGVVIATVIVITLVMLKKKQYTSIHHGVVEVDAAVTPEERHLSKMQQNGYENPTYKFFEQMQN", "experiment": "Inhibition of self induced amyloid beta (1 to 42 residues) (unknown origin) aggregation assessed as reduction in NFI measured after 48 hrs by thioflavin T based fluorescence analysis", "details": "dose 5-20 µM"}, "[3]": {"tested_on": "Drosophila melanogaster", "experiment": "Reversal of ey-GAL4 driven UAS-amyloid beta induced cellular toxicity in Drosophila melanogaster Oregon R-positive model assessed as increase in rescued eye phenotype at 10 uM by trinocular stereo-zoom microscope relative to control", "format": "functional"}, "[4]": {"tested_on": "Drosophila melanogaster", "experiment": "Reversal of ey-GAL4 driven UAS-amyloid beta induced cellular toxicity in Drosophila melanogaster Oregon R-positive model assessed as reduction in mild ommatidial death eye phenotype at 10 uM by trinocular stereo-zoom microscope relative to control", "format": "functional", "parameters": "scale not given: the % may be the effect or the level left"}, "[5]": {"molecular_target": "Acetylcholinesterase (Homo sapiens, UniProt P22303)", "sequence (P22303 whole entry)": "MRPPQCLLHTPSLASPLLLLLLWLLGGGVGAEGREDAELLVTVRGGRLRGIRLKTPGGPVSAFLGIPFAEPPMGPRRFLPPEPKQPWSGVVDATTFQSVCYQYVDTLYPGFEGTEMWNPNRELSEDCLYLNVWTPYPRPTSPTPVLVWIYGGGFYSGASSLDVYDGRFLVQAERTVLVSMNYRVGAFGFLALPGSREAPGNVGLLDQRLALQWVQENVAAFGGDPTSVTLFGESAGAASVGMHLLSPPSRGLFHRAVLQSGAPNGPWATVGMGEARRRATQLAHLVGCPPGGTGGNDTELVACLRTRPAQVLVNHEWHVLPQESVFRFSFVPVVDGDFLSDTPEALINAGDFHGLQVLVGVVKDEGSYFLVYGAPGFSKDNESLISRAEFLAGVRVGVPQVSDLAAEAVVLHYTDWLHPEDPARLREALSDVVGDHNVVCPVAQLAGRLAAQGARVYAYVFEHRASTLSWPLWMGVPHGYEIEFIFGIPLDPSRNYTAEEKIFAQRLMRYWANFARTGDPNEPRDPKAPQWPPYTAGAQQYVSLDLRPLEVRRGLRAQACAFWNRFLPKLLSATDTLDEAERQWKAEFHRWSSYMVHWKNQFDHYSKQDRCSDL", "experiment": "Non-competitive inhibition of human AChE using varying concentrations of acetylthiocholine iodide as substrate assessed as reduction in Vmax with constant Km at 0.03 to 0.3 uM by Lineweaver-Burk double reciprocal plot analysis", "details": "dose 0.03-0.3 µM"}, "[6]": {"experiment": "Toxicity in Drosophila melanogaster Oregon R-positive assessed as reduction in eclosed flies at pupal stage at 100 uM measured until 15 days relative to control", "parameters": "scale not given: the % may be the effect or the level left", "details": "360 h, time 15 day"}, "[7]": {"experiment": "Cmax in male Wistar rat at 20 mg/kg, po measured upto 32 hrs by high-performance liquid chromatography", "format": "ADME, organism-based", "details": "in vivo"}, "[8]": {"experiment": "Drug concentration in male Wistar rat brain homogenate at 20 mg/kg, po measured after 4 days", "format": "ADME, organism-based", "details": "time 4 day, read-out: Ct"}, "[9]": {"experiment": "Acute toxicity in female Wistar rat assessed as histopathological changes in heart at 100 to 500 mg/kg, po measured after 14 days", "format": "organism-based", "details": "in vivo, 336 h, dose 100-500 mg/kg, time 14 day"}, "[10]": {"molecular_target": "Amyloid-beta precursor protein (Homo sapiens) (UniProt P05067)", "experiment": "Inhibition of self induced amyloid beta (1 to 42 residues) (unknown origin) aggregation at 5 to 20 uM measured after 48 hrs by thioflavin T based fluorescence analysis relative to control", "details": "dose 5-20 µM"}, "[11]": {"experiment": "Acute toxicity in female Wistar rat assessed as weight loss at 100 to 500 mg/kg, po measured upto 5 days", "format": "organism-based", "details": "in vivo, 120 h, dose 100-500 mg/kg, time < 5 day"}, "[12]": {"experiment": "in vitro", "details": "PAMPA"}, "[13]": {"experiment": "MRT in male Wistar rat at 20 mg/kg, po measured upto 32 hrs by high-performance liquid chromatography", "format": "ADME, organism-based", "details": "in vivo"}, "[14]": {"tested_on": "Drosophila melanogaster", "experiment": "Reversal of ey-GAL4 driven UAS-amyloid beta induced cellular toxicity in Drosophila melanogaster Oregon R-positive model assessed as increase in rescued eye phenotype at 15 uM by trinocular stereo-zoom microscope relative to control", "format": "functional"}, "[15]": {"molecular_target": "Beta-secretase 1 (Homo sapiens, UniProt P56817)", "sequence (P56817 whole entry)": "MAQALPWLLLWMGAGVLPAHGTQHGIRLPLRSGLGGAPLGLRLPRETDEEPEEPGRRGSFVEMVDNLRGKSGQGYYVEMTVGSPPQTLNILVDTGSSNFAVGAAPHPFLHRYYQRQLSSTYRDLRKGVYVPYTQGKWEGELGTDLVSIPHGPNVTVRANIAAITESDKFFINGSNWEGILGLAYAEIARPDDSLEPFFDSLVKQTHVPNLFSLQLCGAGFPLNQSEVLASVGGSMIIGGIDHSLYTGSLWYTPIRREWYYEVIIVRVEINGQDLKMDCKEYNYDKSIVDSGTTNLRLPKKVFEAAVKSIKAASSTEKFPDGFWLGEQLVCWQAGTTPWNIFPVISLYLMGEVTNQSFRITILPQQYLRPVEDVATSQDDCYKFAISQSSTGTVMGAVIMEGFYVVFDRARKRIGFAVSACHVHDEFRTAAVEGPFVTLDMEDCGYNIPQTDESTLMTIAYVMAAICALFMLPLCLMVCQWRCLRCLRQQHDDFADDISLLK", "experiment": "Inhibition of human BACE-1 measured after 2 hrs by FRET assay"}, "[16]": {"molecular_target": "Amyloid-beta precursor protein (Homo sapiens) (UniProt P05067)", "experiment": "Inhibition of amyloid beta (1 to 42 residues) (unknown origin) aggregation assessed as reduction in fibrils measured after 3 days by AFM analysis", "details": "time 3.0 day"}},
  "note": "The source made the active and inactive calls. No cut-off for these calls is given here.",
  "data": [
    {"smiles": "COc1cc2ncnc(N3CCN(Cc4ccccc4)CC3)c2cc1OC", "values": [
      {"measurement": "half-life", "setting": "[1]", "result": 187, "unit": "min"},
      {"measurement": "inhibition", "setting": "[2]", "result": "Dose-Dependent Effect"},
      {"measurement": "Activity", "setting": "[3]", "result": 36.6, "unit": "%"},
      {"measurement": "Activity", "setting": "[4]", "result": 37, "unit": "%"},
      {"measurement": "Activity", "setting": "[5]", "result": "Active"},
      {"measurement": "Activity", "setting": "[6]", "result": 65, "unit": "%"},
      {"measurement": "Cmax", "setting": "[7]", "result": 1340, "unit": "ng/mL"},
      {"measurement": "concentration at 96 h", "setting": "[8]", "result": 977, "unit": "ng/mL"},
      {"measurement": "Activity", "setting": "[9]", "result": "Non-Toxic"},
      {"measurement": "inhibition", "setting": "[10]", "result": 27.3, "unit": "%"},
      {"measurement": "Activity", "setting": "[11]", "result": "Toxic"},
      {"measurement": "Papp at 18 h, 25 ug/ml", "setting": "[12]", "result": 6.03, "unit": "×10⁻⁶ cm/s"},
      {"measurement": "MRT", "setting": "[13]", "result": 6.07, "unit": "h"},
      {"measurement": "Activity", "setting": "[14]", "result": 57, "unit": "%"},
      {"measurement": "IC50", "setting": "[15]", "result": 231, "unit": "nM"},
      {"measurement": "inhibition", "setting": "[16]", "result": "Active"}
    ]}
  ]
}
